For assay [1], the target named is T1, strychnineinsensitive glycine recognition site (NMDA receptor-ion channel complex) (Rattus norvegicus, UniProt P35439).
T1 construct: Synaptic plasma membranes (SPM) were prepared from rat forebrain; from tissue; host or cells: rat forebrain synaptic plasma membranes
Description: Glycine binding assay, [3H]glycine, synaptic plasma membranes. The note with it: 10 nM [3H]glycine, pH 7.4, rat forebrain SPM; read-out: Ki apparent, Gly. How it is done:
Synaptic plasma membranes (SPM) were prepared from rat forebrain and stored as previously described [J. B. Monahan and J. Michel, J. Neurochem, 48, 1699-1708 (1987)]. Frozen membranes were thawed and diluted 1:20 with 0.04% triton X-100 in 50 mM tris/acetate (pH 7.4). Following incubation at 37° C. for 30 min., the SPM were collected by centrifugation at 95,000 X g for 15 min. The pellet was resuspended in 50 mM tris/acetate (pH 7.4, triton-free) and hand-homogenized five times. The membranes were again centrifuged as above. The pellet was washed two additional times with 50 mM tris/acetate (without homogenization) and centrifuged. The final pellet was resuspended with homogenization in 50 mM tris/acetate.
In the general receptor binding assay procedure, 10 nM [^3 H]glycine was added to the appropriate concentration of the test compounds and the assay initiated by the addition of 0.2-0.4 mg of ice cold SPM. The assay, which was done in 1.5 ml centrifuge tubes, was adjusted to a total volume of 1.0 ml with all additions being made in 50 mM tris/ acetate, pH 7.4 at 4° C. After a 10 minute incubation at 2° C., the samples were centrifuged for 15 min. at 12,000 g (4° C.) in a Beckman Microfuge 12. The supernatant was aspirated and the tube tip containing the pelleted membranes cut off and agitated in 0.5 ml of Beckman BTS-450 tissue solubilizer for a minimum of 6 hours at room temperature. Beckman MP scintillation cocktail (5 ml) containing 7 ml/liter acetic acid was then added and the samples counted on a Beckman LS 5800 liquid scintillation counter with automatic corrections for quenching and counting efficiency. […] The binding of [^3 H]glycine to the SPM was analyzed using Scatchard and Hill transformations and the Ki for other compounds was determined using logit-log analysis. Calculations and regression analysis were performed using templates developed for Lotus 123 as previously described [Pullan et al, Id.].

A further assay relates to hippocampal slice. Kind of assay: Epileptic hippocampal slice, 0% Mg+2-induced epilepsy. In kind it is cell-based, Sprague-Dawley albino rat. Conditions: Rattus norvegicus, 30 μM Compound No. 6, 0% Mg+2. The source says:
Hippocampal slices (450 μ) were obtained from male Sprague-Dawley albino rats (100-325 g). The method of slice preparation has been detailed elsewhere [A. H. Ganong et al., Brain Res., 273, 170-174 (1983)]. Slices were stored in a humidified interface chamber at room temperature and bathed in artificial cerebrospinal fluid (ACSF) which contained (in mM): NaCl 124.0, KCl 5.0, KH2 PO4 1.0, NaHCOP3 26.4, CaCl2, 2.0, MgSO4 1.5 and D-glucose 10.0, and was equilibrated with 95% 02:5% CO2. When needed for study, slices were placed one at a time in a small submersion chamber maintained at 35° C. where they were continuously perfused at 1.0-2.0 ml/min. Fresh solutions reached the recording chamber within 20 seconds and the perfusate was completely changed over within a minute. Additional oxygen and stirring was provided by an air jet (95% O2 :5% CO2) directed at the surface of the ACSF. Standard electrophysiological techniques were employed. Extracellular recording electrodes were glass micropipettes filled with 2.0 M NaCl and broken back to 2.0 m.OMEGA. resistance. All recording was from the somatic region of CA1. […] Intracellular recording electrodes of 60-100 MQ resistance were filled with 2.5 M KAc. […] The Schaffer collateral/commissural fibers were stimulated with tungsten bipolar stimulating electrodes at a rate of 0.03 Hz. The resulting field EPSP (S/C-CA1 EPSP) and the DC potential were amplified by an Axoprobe 1 amplifier and were continuously monitored on a Tektronix 5111A storage oscilloscope and a Gould 2300 chart recorder with a Gould Waveform storage module. Epileptiform activity was induced by omission of Mg++ ions from the perfusate, which removes the Mg++ mediated voltage-dependent block of the NMDA. receptor [B. Ault et al., J. Physiol., 307, 413-428 (1980)], or by the addition of the GABA antagonist picrotoxin. Drugs were added to the perfusate and zero magnesium refers to solutions which contain no added magnesium. The amplitude of the stimulus evoked primary population spike was used to assess the effects of experimental manipulations on the efficacy of synaptic function.

Like-named read-outs stand apart in the source and are kept apart here.

This note sets out measurements from patent publication US5229413A, “Compositions containing indole-2-carboxylate compounds for treatment of CNS disorders” (G. D. Searle & Co., priority 1992, dated 1993).

On to `O=C(O)Cc1c(C(=O)O)[nH]c2cc(Cl)ccc12` [Compound No. 6, 2-carboxy-6-chloro-3-indoleacetic acid], for which the Ki in assay [1] stood at 1300 nM. The activity at 30 µM in the assay with hippocampal slice (read-out: Burst duration) came out at 60%; with hippocampal slice (read-out: Primary population spike amplitude), 97%; with hippocampal slice (read-out: Spontaneous activity), 48%; in the assay with hippocampal slice (read-out: Sum of additional population spike amplitude), 70.1%.
